# Data taken from patent US20060078570A1, “Use of asafetida extract as medicine for abstinence of drugs” (priority 2004, published 2006).
# Structures can show the parent of a compound that is named as a salt.
# What was measured:
# morphine-dependent rats = test: Naloxone-promoted abstinence experiment in morphine-dependent rats (symptom scores and body weight decrease); format: in vivo, Wistar rat
# [1] = system: subjects addicted to drugs; test: Clinical trial: abstinence treatment of subjects addicted to drugs, asafetida injection intramuscularly; format: in vivo, human; settings: 20 cases per group, thrice per day, phenoxyimidazoline hydrochloride 0.1 mg tablet
# Description: The typical performance of abstinence syndrome was as follows: yawning, lacrimation, perspiring, bad mood, anxiety, and dysphoria.
# Apparently effective: the abstinence syndrome disappears completely and performance is normal.
# Effective: the abstinence syndrome is obviously abated.
# Ineffective: the abstinence syndrome has no obvious remission or no remission at all.
# The subjects addicted to drugs were randomly grouped into asafetida injection treatment group, phenoxyimidazoline hydrochloride positive control group, placebo negative control group, wherein the phenoxyimidazoline hydrochloride is a relatively effective medicine for abstinence of drugs at present. The pharmaceuticals and usage thereof in each group were as follows:
# Asafetida injection, 2 ml (equivalent to 1 g of original crude material)/bottle, thrice per day, a bottle per time, injected intramuscularly, for three consecutive days.
# Phenoxyimidazoline hydrochloride, 0.1 mg/tablet, thrice per day, a tablet per time, for three consecutive days.
# Placebo (physiological saline), 2 ml/bottle, thrice per day, a bottle per time, injected intramuscularly, for three consecutive days.
# [2] = system: subjects addicted to heroin for over 10 years; test: Clinical trial (typical case): subjects addicted to heroin for over 10 years, asafetida injection intravenously; format: in vivo, human; settings: 25 cases per group, heroin over 10 years, phenoxyimidazoline hydrochloride 0.1 mg tablet, thrice per day
# [3] = clonidine 0.1 mg/kg perfused, X ± S, n=10
# [4] = three days, asafetida 2 ml i.m.
# [5] = asafetida 5 ml i.v., three days
smiles,measurement,setting,value
"Clc1cccc(Cl)c1N=C1NCCN1 [clonidine, phenoxyimidazoline hydrochloride]",Scores of performance and autonomic nervous system symptoms of rats after naloxone administration,"morphine-dependent rats; clonidine 0.1 mg/kg perfused once a day, three times, 15 min after naloxone 4 mg/kg i.p., mean ± SD, n=10",2.22 ± 2.29
same,Scores of performance and autonomic nervous system symptoms of rats after naloxone administration,"morphine-dependent rats; clonidine 0.1 mg/kg perfused, 30 min after naloxone",2.68 ± 1.81
same,Scores of performance and autonomic nervous system symptoms of rats after naloxone administration,"morphine-dependent rats; clonidine 0.1 mg/kg perfused, 45 min after naloxone",1.21 ± 1.80
same,Scores of performance and autonomic nervous system symptoms of rats after naloxone administration,"morphine-dependent rats; clonidine 0.1 mg/kg perfused, 60 min after naloxone",1.61 ± 1.54
same,Scores of performance and autonomic nervous system symptoms of rats after naloxone administration,"morphine-dependent rats; clonidine 0.1 mg/kg perfused, 90 min after naloxone",0.40 ± 0.68
same,Scores of performance and autonomic nervous system symptoms of rats after naloxone administration,"morphine-dependent rats; clonidine 0.1 mg/kg perfused, 120 min after naloxone",0 ± 0
same,body weight decreasing at 30 min after administrating naloxone,morphine-dependent rats; [3],4.077 ± 3.431 g
same,body weight decreasing at 60 min after administrating naloxone,morphine-dependent rats; [3],5.560 ± 4.960 g
same,"Apparently effective, Number of Cases","[1]; three consecutive days, asafetida injection 2 ml (1 g crude material) intramuscularly",13
same,"Apparently effective, %",[1]; [4],65.00%
same,"Effective, %",[1]; [4],35.00%
same,"Effective, Number of Cases",[1]; [4],7
same,"Ineffective, %",[1]; [4],0%
same,"Ineffective, Number of Cases",[1]; [4],0
same,Total effective rate %,[1]; [4],100%
same,"Apparently effective, %",[2]; [5],60.00%
same,"Effective, %",[2]; [5],40.00%
same,"Effective, Number of Cases",[2]; [5],10
same,"Ineffective, %",[2]; [5],0%
same,"Ineffective, Number of Cases",[2]; [5],0
same,Total effective rate %,[2]; [5],100%
same,"Apparently effective, Number of Cases","[2]; three consecutive days, asafetida injection 5 ml (2.5 g crude material) intravenously",15
